Source: patent US20120082677A1, “COMPOSITIONS FOR THE TREATMENT OF HCV AND HBV” (priority 2010, published 2012)

Tests used:
[1] = Experiment 7 (second): injection in white mice for about 15 days; format: in vivo; conditions: 5 per group, injected for about 15 days
From the text: Experimental animals: We classified 20 white mice in 4 groups every group has 5 mice.

[2] = cited from earlier work

In the case of `NC[C@H]1CC[C@H](C(=O)O)CC1` [tranexamic acid], the “survival of the mice” value [1] is listed as “still alive”, the “time of peak plasma concentration” value ([2]; absorption via the GIT) is listed as 2 h and the excretion ([2]; chemical part) is listed as “excreted in the urine mainly as unchanged drug”. For the same compound, the protein binding ([2]; in vivo) was “very low” and the absorption ([2]; via the GIT) was “easily absorbed via the GIT”.
